Results on 18 compounds are retold here after PubChem BioAssay (NCI).

Molecules are shown by their SMILES.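 The compound was tested at five concentrations on cells cultured in 96-well plates, with a 48-hour exposure period. The concentration for 50% growth inhibition is given as GI50. TGI marks complete inhibition of growth.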 Bounds are passed on as bounds.

Holding throughout (experiment): growth of human tumour cells (NCI), 48 h
For test [1], the system named is HCT-116 colon.
Test [2] relates to DU-145 prostate.
Test [3] deals with HOP-62 NSCLC.
Test [4] concerns SNB-19 CNS.
Test [5] relates to NCI-H226 lung.
Test [6] deals with COLO 205 colon.
The subject of test [7] is LOX IMVI melanoma.
For test [8], the system named is SK-MEL-2 melanoma.
Test [9] concerns HS 578T breast.
Test [10] deals with PC-3 prostate.

On to `O=C(O)C1CC(c2ccccc2)=NN1c1ccccc1` (stereo not drawn), for which the TGI in [1], in test [2], in test [3], in test [4], in test [5] and in test [6] was greater than 100 µM each time. Further, the TGI is greater than 100 µM in [7], greater than 100 µM in test [8], 81.6 µM in [9] and greater than 100 µM in test [10].
Take `O=S(=O)(O)c1c(N=Nc2c(O)ccc3ccccc23)ccc2ccccc12`: the TGI in [1], in test [2], in test [3], in test [4], in test [5] and in [6] was greater than 100 µM in each case. Besides, the TGI in test [7], in test [8], in [9] and in test [10] was greater than 100 µM in each case.
Regarding `O=C(/C=C/c1ccc(O)cc1)NCCc1ccc(O)cc1`, the TGI in [1], in test [2], in [3], in test [4], in test [5] and in test [6] was greater than 12.5 µM throughout. Besides, the TGI in [7], in [8], in test [9] and in test [10] was greater than 12.5 µM in each case.
On to `CC(O)C(O)C(N)CC=O` (stereo not drawn), for which the TGI in test [1], in test [3], in test [4], in [5], in test [6] and in test [7] was greater than 500 µM throughout. Further, the TGI in test [8] was greater than 500 µM.
Turning to `N#C/C=C1\C=CC(O)C(O)C1OC1OC(CO)C(O)C(O)C1O` (stereo not drawn), the TGI in test [1], in test [2], in test [3], in test [4], in [6] and in test [7] was greater than 100 µM each time. The TGI in [8], in test [9] and in [10] was greater than 100 µM in each case.
For `CN(C)Cc1ccc(C(=O)Nc2ccc3ncnc(Nc4ccc(Oc5cccc(F)c5)c(Cl)c4)c3c2)cc1`, the GI50 in test [2] is 1.55 µM; in test [4] it was 1.66 µM; in test [7], 1.69 µM. In addition, the TGI is 2.91 µM in test [2], 3.09 µM in test [4] and 3.15 µM in test [7].
As to `Fc1ccc(-c2ccc(-c3nnc(-c4cc(F)c(Cl)cc4Cl)o3)o2)cc1Cl`, the GI50 in test [2] is 29.5 µM; in test [4], 25.4 µM; in test [5], 20.9 µM; in [6], 18.8 µM; in test [7], 20.8 µM; in test [8] it was 54.8 µM. Moreover, the GI50 in test [9] is 22.3 µM; in test [10] it was 36.9 µM. In addition, the TGI in [2] is greater than 100 µM; in test [4], greater than 100 µM; in [5], 76.1 µM; in test [6] it was 42.8 µM; in test [7], 48.9 µM; in test [8], greater than 100 µM. Moreover, the TGI in test [9] was 67.6 µM; in test [10], greater than 100 µM.
As for `Nc1nc(SCc2ccccc2)c2ncn(Cc3ccccc3)c2n1`, the TGI in test [1], in [2], in test [3], in [4], in test [5] and in test [6] was greater than 100 µM throughout. The TGI in test [7], in test [8], in [9] and in [10] was greater than 100 µM throughout.
In the case of `COc1ccc(SC(C)(SC)c2ccccn2)c(OC)n1` (stereo not drawn), the TGI in test [1], in [2], in [3], in test [4], in test [5] and in test [6] was greater than 100 µM in each case. The TGI in test [7], in test [8], in [9] and in test [10] was greater than 100 µM each time.
Turning to `S=C(Nc1ccc(Cl)cc1)Nc1ccc(Cl)cc1` (tested in a mixture with another compound), the GI50 is 1.46 µM in [1]; 4.87 µM in test [2]; 2.75 µM in test [3]; 3.25 µM in test [4]; 2.33 µM in test [5]; 1.9 µM in test [6]. For the same compound, the GI50 in test [7] was 1.71 µM; in test [8] it was 2.34 µM; in [9], 2.37 µM; in test [10] it was 1.71 µM. For the same compound, the TGI in test [1] was 3.07 µM; in test [2], greater than 100 µM; in test [3], 7.2 µM; in [4], greater than 100 µM; in test [5] it was 7.76 µM; in test [6], 3.42 µM. Besides, the TGI in test [7] was 3.57 µM; in test [8], 5.04 µM; in test [9] it was greater than 100 µM; in test [10], 6.59 µM.
`S=C1N(c2ccc(Cl)cc2)C2=C(N=Nc3ccccc3)C(=Nc3ccccc3S2)N1c1ccccn1`: the TGI in [1] is 27.1 µM; in [2], 27.8 µM; in test [3], 33.7 µM; in test [4], 28.3 µM; in test [6], 25.2 µM; in test [7], 24.4 µM. The TGI in test [9] amounted to 32.7 µM; in [10], 27.6 µM.
In the case of `O=S(O)c1cc(Cl)cc(Cl)c1O`, the TGI in test [1], in test [3], in test [4], in [7] and in test [8] was greater than 100 µM throughout.
On to `C[N+]1(C)CCC(C#N)(c2ccccc2)CC1`, for which the TGI in test [1], in test [2], in [3], in test [4], in [6] and in [9] was greater than 100 µM in each case.
Consider `[C-]#[O+].[C-]#[O+].[Ir].[O-]c1cccc2cccnc12`, for which the GI50 in test [4], in test [5], in test [6], in [7] and in [8] was greater than 100 µM in each case. For the same compound, the TGI in test [4], in test [5], in test [6], in test [7] and in [8] was greater than 100 µM each time.
For `COc1cccc(-c2nc3c(C(=O)NCCN(C)C)cccc3[nH]2)c1`, the TGI was 44.2 µM in test [1]; 33.2 µM in [3]; greater than 100 µM in [4]; 35.7 µM in test [5]; 23.1 µM in test [6]; 34.9 µM in [7]. The compound further returned a TGI in [8] of 34.4 µM.
Take `C=C1C(=O)OC2C1C(OC(=O)/C(C)=C/C)CC1(C)C(=O)CCC(=C)C21` (stereo not drawn): the TGI came out at 31.2 µM in test [1]; 24.2 µM in test [2]; 30.5 µM in [3]; 55.9 µM in test [5]; 20.3 µM in [6]; 13.2 µM in [7]. In addition, the TGI in test [8] stood at 24.2 µM; in test [9] it was 78 µM; in test [10], 22.9 µM.
On to `CC(C)C(N=Cc1ccccc1O)C(=O)O` (stereo not drawn), for which the TGI in test [1], in [2], in test [3], in test [4], in test [5] and in test [6] was greater than 100 µM in each case. The TGI in test [7], in test [8], in [9] and in test [10] was greater than 100 µM throughout.
As to `O=C1/C(=C\c2ccc(-c3ccc(Cl)cc3Cl)o2)SC2N=C(COc3ccc(Cl)cc3)NN12` (stereo not drawn), the TGI in test [1], in test [2], in test [3], in test [4], in [5] and in [6] was greater than 100 µM in each case. Further, the TGI in test [7] was greater than 100 µM; in test [8] it was greater than 100 µM; in test [9], 87.8 µM; in test [10] it was greater than 100 µM.
